According to US12479847B2 (DANA-FARBER CANCER INSTITUTE, INC., priority 2019, dated 2025):
Like-named read-outs stand apart in the source and are kept apart here.

What was measured:
Assay in all cases: KINOMEscan (ScanMAX) kinase profiling
Type in all cases: binding
panel of 468 kinases [1] = target: T1, panel of 468 kinases (Homo sapiens, UniProt Q9UL54); conditions: TAOK2; 1 μM; read-out: % control
T1 construct: purchased KINOMEscan (ScanMAX) service
T1 sequence (Q9UL54 1-1235): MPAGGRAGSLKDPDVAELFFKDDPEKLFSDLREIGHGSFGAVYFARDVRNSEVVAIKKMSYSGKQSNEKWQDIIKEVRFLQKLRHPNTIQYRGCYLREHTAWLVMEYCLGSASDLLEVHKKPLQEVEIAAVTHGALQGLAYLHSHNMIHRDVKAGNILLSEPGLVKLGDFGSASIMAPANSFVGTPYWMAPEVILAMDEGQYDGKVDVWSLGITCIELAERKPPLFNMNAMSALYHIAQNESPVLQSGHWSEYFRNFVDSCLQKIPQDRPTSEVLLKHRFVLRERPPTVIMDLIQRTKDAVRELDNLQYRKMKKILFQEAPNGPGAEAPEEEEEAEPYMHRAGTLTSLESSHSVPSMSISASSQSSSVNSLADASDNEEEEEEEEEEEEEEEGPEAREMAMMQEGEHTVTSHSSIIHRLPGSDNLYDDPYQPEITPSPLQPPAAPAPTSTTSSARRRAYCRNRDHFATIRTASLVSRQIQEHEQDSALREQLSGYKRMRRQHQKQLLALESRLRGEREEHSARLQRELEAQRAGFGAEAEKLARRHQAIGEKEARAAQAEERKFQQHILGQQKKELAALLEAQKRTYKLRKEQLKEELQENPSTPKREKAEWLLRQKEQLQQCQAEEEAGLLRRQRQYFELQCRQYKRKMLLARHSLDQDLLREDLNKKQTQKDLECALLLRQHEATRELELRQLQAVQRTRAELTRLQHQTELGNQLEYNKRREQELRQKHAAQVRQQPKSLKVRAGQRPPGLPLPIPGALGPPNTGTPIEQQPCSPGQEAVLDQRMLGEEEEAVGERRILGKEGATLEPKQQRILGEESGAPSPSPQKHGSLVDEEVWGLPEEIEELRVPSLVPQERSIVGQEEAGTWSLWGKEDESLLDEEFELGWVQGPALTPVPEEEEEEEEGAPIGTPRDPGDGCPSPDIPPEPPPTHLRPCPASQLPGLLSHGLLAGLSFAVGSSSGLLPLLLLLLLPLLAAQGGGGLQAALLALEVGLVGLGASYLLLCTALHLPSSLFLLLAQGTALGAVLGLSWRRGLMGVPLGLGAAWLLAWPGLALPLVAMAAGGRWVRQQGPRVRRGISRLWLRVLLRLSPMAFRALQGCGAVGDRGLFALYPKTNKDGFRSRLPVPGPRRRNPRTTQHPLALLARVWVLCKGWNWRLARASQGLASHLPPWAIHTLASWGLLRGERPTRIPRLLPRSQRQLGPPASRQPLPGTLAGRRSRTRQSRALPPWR

panel of 468 kinases [2] = target: T2, panel of 468 kinases (Homo sapiens, UniProt P07333); conditions: 1 μM, read-out: % control
T2 construct: purchased KINOMEscan (ScanMAX) service
T2 sequence (P07333 20-972): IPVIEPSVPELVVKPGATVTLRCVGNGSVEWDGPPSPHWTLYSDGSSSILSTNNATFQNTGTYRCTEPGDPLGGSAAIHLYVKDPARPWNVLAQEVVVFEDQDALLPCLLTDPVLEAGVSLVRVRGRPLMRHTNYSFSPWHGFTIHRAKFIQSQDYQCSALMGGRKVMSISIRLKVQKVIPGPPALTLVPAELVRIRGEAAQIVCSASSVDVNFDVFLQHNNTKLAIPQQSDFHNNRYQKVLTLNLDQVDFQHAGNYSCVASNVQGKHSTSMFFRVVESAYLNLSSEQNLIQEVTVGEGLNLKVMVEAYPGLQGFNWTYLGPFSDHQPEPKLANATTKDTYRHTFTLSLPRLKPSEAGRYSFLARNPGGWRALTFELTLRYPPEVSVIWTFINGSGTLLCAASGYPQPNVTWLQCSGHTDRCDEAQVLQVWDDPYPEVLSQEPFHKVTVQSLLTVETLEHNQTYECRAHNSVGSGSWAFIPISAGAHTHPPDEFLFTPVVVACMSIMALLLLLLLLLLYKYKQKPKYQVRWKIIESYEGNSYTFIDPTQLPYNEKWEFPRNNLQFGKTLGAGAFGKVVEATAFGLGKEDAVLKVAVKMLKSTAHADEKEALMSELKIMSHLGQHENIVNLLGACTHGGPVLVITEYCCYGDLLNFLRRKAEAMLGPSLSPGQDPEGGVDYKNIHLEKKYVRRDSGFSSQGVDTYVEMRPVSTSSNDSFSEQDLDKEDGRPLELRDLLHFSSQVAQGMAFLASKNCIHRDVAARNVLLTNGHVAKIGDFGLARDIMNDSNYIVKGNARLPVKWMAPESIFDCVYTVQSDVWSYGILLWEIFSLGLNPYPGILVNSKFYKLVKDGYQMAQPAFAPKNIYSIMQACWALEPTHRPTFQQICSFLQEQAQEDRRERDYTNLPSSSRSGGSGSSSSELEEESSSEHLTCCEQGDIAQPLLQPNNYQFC

panel of 468 kinases [3] = target: T3, panel of 468 kinases (Homo sapiens, UniProt P57058); conditions: HUNK; 1 μM; read-out: % control
T3 construct: purchased KINOMEscan (ScanMAX) service
T3 sequence (P57058 1-714): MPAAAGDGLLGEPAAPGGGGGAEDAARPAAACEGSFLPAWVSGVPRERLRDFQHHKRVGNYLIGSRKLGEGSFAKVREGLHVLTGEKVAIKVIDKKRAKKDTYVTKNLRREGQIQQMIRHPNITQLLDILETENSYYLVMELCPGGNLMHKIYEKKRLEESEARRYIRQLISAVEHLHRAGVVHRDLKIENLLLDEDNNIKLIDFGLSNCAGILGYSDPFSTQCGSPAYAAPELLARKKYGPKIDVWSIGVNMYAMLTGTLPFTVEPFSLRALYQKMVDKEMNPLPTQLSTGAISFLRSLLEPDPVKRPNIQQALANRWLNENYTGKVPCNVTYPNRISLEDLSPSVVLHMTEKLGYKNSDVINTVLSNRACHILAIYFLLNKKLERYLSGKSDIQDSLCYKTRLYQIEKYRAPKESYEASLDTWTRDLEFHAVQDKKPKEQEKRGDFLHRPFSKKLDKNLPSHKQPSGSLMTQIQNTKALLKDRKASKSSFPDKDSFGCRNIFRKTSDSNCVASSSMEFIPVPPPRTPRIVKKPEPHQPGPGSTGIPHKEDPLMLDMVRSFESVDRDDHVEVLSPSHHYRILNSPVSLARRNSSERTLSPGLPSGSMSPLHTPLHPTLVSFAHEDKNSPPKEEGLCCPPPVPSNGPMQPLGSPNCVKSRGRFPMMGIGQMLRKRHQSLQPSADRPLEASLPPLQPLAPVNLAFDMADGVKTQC

panel of 468 kinases [4] = target: T4, panel of 468 kinases (Homo sapiens, UniProt Q6PHR2); conditions: ULK3; 1 μM; read-out: % control
T4 construct: purchased KINOMEscan (ScanMAX) service
T4 sequence (Q6PHR2 1-472): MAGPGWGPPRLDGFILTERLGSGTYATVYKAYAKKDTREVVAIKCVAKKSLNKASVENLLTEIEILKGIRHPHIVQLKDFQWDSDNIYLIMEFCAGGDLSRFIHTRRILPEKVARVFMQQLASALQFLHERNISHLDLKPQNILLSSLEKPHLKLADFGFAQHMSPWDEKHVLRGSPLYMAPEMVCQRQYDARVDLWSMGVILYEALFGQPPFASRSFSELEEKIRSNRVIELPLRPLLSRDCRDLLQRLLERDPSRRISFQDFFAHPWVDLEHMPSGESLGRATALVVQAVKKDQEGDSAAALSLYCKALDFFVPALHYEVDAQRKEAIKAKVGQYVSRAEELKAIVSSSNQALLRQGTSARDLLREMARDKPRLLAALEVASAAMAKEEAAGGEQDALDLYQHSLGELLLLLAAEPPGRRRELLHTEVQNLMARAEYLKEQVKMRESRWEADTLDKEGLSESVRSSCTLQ

panel of 468 kinases [5] = target: T5, panel of 468 kinases (Homo sapiens, UniProt Q16288); conditions: TRKC; 1 μM; read-out: % control
T5 construct: purchased KINOMEscan (ScanMAX) service
T5 sequence (Q16288 32-839): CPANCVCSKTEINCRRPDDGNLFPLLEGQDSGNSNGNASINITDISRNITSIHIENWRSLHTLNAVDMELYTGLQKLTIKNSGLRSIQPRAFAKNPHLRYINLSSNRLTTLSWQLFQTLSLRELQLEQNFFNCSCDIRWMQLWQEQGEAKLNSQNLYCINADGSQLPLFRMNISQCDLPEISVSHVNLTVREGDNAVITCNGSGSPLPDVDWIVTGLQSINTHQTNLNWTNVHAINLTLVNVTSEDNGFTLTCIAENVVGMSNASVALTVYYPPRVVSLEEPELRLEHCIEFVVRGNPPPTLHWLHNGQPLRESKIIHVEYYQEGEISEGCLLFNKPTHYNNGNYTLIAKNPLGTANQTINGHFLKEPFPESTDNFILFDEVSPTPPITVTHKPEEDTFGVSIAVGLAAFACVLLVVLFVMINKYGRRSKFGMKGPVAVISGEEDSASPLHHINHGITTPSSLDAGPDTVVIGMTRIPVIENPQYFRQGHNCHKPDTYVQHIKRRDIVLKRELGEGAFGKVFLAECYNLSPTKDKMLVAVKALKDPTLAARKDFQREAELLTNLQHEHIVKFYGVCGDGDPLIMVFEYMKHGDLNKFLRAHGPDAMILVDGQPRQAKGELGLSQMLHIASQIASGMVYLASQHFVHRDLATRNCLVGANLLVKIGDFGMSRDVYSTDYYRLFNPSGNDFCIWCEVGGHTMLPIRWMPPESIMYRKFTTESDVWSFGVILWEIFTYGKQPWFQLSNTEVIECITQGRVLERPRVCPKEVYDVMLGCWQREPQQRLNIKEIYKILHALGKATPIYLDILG

SMILES	remaining binding at 1 µM (panel of 468 kinases [1]) [%]	remaining binding at 1 µM (panel of 468 kinases [2]; CSF1R-autoinhibited) [%]	remaining binding at 1 µM (panel of 468 kinases [2]; CSF1R) [%]	remaining binding at 1 µM (panel of 468 kinases [3]) [%]	remaining binding at 1 µM (panel of 468 kinases [4]) [%]	remaining binding at 1 µM (panel of 468 kinases [5]) [%]
CNc1nc(Nc2ccc(S(=O)(=O)N3CCC(N4CCOCC4)CC3)cc2OC)nc2[nH]cc(Cl)c12 [Compound 12, 5-chloro-N2-(2-methoxy-4-((4-morpholinopiperidin-1-yl)sulfonyl)phenyl)-N4-methyl-7H-pyrrolo[2,3-d]pyrimidine-2,4-diamine]	73	100	100	12	65	100
CNc1nc(Nc2ccc(C(=O)N3CCC(N4CCOCC4)CC3)c3c2OCO3)nc2[nH]cc(Cl)c12 [Compound 75, (7-((5-chloro-4-(methylamino)-7H-pyrrolo[2,3-d]pyrimidin-2-yl)amino)benzo[d][1,3]dioxol-4-yl)(4-morpholinopiperidin-1-yl)methanone]	77	99	98	18	7.6	100
CNc1nc(Nc2ccc(P3(=O)CCN(C4CCOCC4)CC3)cc2OC)nc2[nH]cc(Cl)c12 [Compound 77, 4-(4-((5-chloro-4-(methylamino)-7H-pyrrolo[2,3-d]pyrimidin-2-yl)amino)-3-methoxyphenyl)-1-(tetrahydro-2H-pyran-4-yl)-1,4-azaphosphinane 4-oxide]	76	100	100	14	65	100
